Values after ≈ are worked out from the molar mass of the structure shown. Where two headings read alike, the source gives them in different places.
How the values were obtained:
[1] = tested on: colorectal cancer cell line SW480; assay: Cell growth inhibitory (cytotoxic) activity assay; assay type: cell-based, human; conditions: SW480 (colorectal cancer)
From the text: (§1) The cell growth inhibitory activities of compounds 1–3 against fourteen different human cell lines (human liver cell line LX-2; hepatocellular cancer line HEPG2; human intestinal epithelial cell line NCM460; colorectal cancer cell lines HCT116 and SW480; normal human breast cell line MCF-10A; breast cancer cell line MCF7; triple-negative breast cancer cell lines MDA-MB-231, MDA-MB-468, and Bt-549; human umbilical vein endothelial cell line; lung cancer cell line A549; cervical cancer cell line Hela; and cholangiocarcinoma cell line RBE) were tested according to the previously published methods. SPSS software version 22.0 was used to test the IC50 values. Cisplatin and adriamycin were used as positive control agents, and all the experiments were carried out in triplicate.

[2] = tested on: cholangiocarcinoma cell line RBE; assay: Cell growth inhibitory (cytotoxic) activity assay; assay type: cell-based, human
From the text: as §1

[3] = tested on: triple-negative breast cancer cell line MDA-MB-468; assay: Cell growth inhibitory (cytotoxic) activity assay; assay type: cell-based, human; conditions: for IC50: MDA-MB-468 (TNBC)
From the text: as §1

[4] = tested on: hepatocellular cancer line HEPG2; assay: Cell growth inhibitory (cytotoxic) activity assay; assay type: cell-based, human
From the text: as §1

[5] = tested on: triple-negative breast cancer cell line Bt-549; assay: Cell growth inhibitory (cytotoxic) activity assay; assay type: cell-based, human; conditions: for IC50: Bt-549 (TNBC)
From the text: as §1

[6] = tested on: colorectal cancer cell line HCT116; assay: Cell growth inhibitory (cytotoxic) activity assay; assay type: cell-based, human
From the text: as §1

[7] = tested on: triple-negative breast cancer cell line MDA-MB-231; assay: Cell growth inhibitory (cytotoxic) activity assay; assay type: cell-based, human; conditions: for IC50: MDA-MB-231 (TNBC)
From the text: as §1

[8] = tested on: cervical cancer cell line Hela; assay: Cell growth inhibitory (cytotoxic) activity assay; assay type: cell-based, human
From the text: as §1

[9] = tested on: normal human breast cell line MCF-10A; assay: Cell growth inhibitory (cytotoxic) activity assay; assay type: cell-based; conditions: MCF-10A (normal human breast cell line)
From the text: as §1

[10] = tested on: human umbilical vein endothelial cell line HUVEC; assay: Cell growth inhibitory (cytotoxic) activity assay; assay type: cell-based
From the text: as §1

[11] = tested on: human liver cell line LX-2; assay: Cell growth inhibitory (cytotoxic) activity assay; assay type: cell-based; conditions: LX-2 (human liver cell line)
From the text: as §1

[12] = tested on: human intestinal epithelial cell line NCM460; assay: Cell growth inhibitory (cytotoxic) activity assay; assay type: cell-based; conditions: NCM460 (normal intestinal epithelial cell line)
From the text: as §1

[13] = tested on: breast cancer cell line MCF7; assay: Cell growth inhibitory (cytotoxic) activity assay; assay type: cell-based, human
From the text: SPSS software version 22.0 was used to test the IC50 values.

[14] = tested on: lung cancer cell line A549; assay: Cell growth inhibitory (cytotoxic) activity assay; assay type: cell-based, human
From the text: as §1

[15] = tested on: Enterococcus gallinarum 5F52C; assay: Antibacterial MIC, CLSI microdilution; assay type: cell-based
Method: (§2) An antibacterial activity test of compounds 1–3 was conducted according to a standard protocol provided by the Clinical and Laboratory Standards Institute (CLSI). Sixteen bacterial strains were used, including Staphylococcus aureus ATCC 29213, Staphylococcus aureus 16339, Staphylococcus aureus 1862, Staphylococcus aureus 3090, Staphylococcus aureus 991, Staphylococcus aureus 669, Staphylococcus aureus 745324, Staphylococcus aureus 16162, Staphylococcus aureus (cfr) GDE4P037P, Enterococcus faecalis ATCC 29212, Enterococcus faecalis 36950, Micrococcus luteus ML01, MRSA, Bacillus subtilis BS01, Enterococcus gallinarum 5F52C, and Enterococcus faecium 36711. Compounds 1–3 were dissolved in DMSO at a concentration of 3.2 mg/mL, and vancomycin and ampicilin were used as antibacterial control agents. […] All the assays were carried out in triplicate.

[16] = tested on: Enterococcus faecalis ATCC 29212; assay: Antibacterial MIC, CLSI microdilution; assay type: cell-based
Method: as §2

[17] = tested on: Staphylococcus aureus (cfr) GDE4P037P; assay: Antibacterial MIC, CLSI microdilution; assay type: cell-based
Method: as §2

[18] = tested on: Enterococcus faecium 36711; assay: Antibacterial MIC, CLSI microdilution; assay type: cell-based
Method: as §2

[19] = tested on: Staphylococcus aureus 991; assay: Antibacterial MIC, CLSI microdilution; assay type: cell-based
Method: as §2

[20] = tested on: Enterococcus faecalis 36950; assay: Antibacterial MIC, CLSI microdilution; assay type: cell-based
Method: as §2

[21] = tested on: Staphylococcus aureus 669; assay: Antibacterial MIC, CLSI microdilution; assay type: cell-based
Method: as §2

[22] = tested on: Staphylococcus aureus 16339; assay: Antibacterial MIC, CLSI microdilution; assay type: cell-based
Method: as §2

[23] = tested on: Staphylococcus aureus ATCC 29213; assay: Antibacterial MIC, CLSI microdilution; assay type: cell-based
Method: as §2

[24] = tested on: Staphylococcus aureus 745324; assay: Antibacterial MIC, CLSI microdilution; assay type: cell-based
Method: as §2

Bacillus subtilis BS01 = assay: Antibacterial MIC, CLSI microdilution; assay type: cell-based
Method: as §2

[25] = tested on: Staphylococcus aureus 16162; assay: Antibacterial MIC, CLSI microdilution; assay type: cell-based
Method: as §2

Micrococcus luteus ML01 = assay: Antibacterial MIC, CLSI microdilution; assay type: cell-based
Method: as §2

[26] = tested on: Staphylococcus aureus 3090; assay: Antibacterial MIC, CLSI microdilution; assay type: cell-based
Method: as §2

[27] = tested on: Staphylococcus aureus 1862; assay: Antibacterial MIC, CLSI microdilution; assay type: cell-based
Method: as §2

[28] = tested on: Staphylococcus simulans AKA1; assay: Antibacterial MIC, CLSI microdilution; assay type: cell-based
MRSA = assay: Antibacterial MIC, CLSI microdilution; assay type: cell-based, Staphylococcus aureus
Method: as §2

N.N.[Cl][Pt][Cl] [Cisplatin, reference compound]
IC50 [1]: 1.82 µM
IC50 [2]: 13.5 µM
IC50 [3]: 8.35 µM
IC50 [4]: 11 µM
IC50 [5]: 7.54 µM
IC50 [6]: 4.83 µM
IC50 [7]: 15.7 µM
IC50 [8]: 7.62 µM
IC50 [9]: 6.43 µM
IC50 [10]: 7.7 µM
IC50 [11]: 12.1 µM
IC50 [12]: 3.17 µM
IC50 [13]: 4.56 µM

COc1cccc2c1C(=O)c1c(O)c3c(c(O)c1C2=O)C[C@@](O)(C(=O)CO)C[C@@H]3O[C@H]1C[C@H](N)[C@H](O)[C@H](C)O1 [Adriamycin, reference compound]
IC50 ([1]; Homo sapiens): 17.5 µM
IC50 ([2]; Homo sapiens): 4.26 µM
IC50 ([3]; Homo sapiens): 3.16 µM
IC50 ([4]; Homo sapiens): 15.5 µM
IC50 ([5]; Homo sapiens): 3.75 µM
IC50 ([14]; Homo sapiens): 1.51 µM
IC50 ([6]; Homo sapiens, HCT-116): 1.54 µM
IC50 ([7]; Homo sapiens): 4.04 µM
IC50 ([8]; Homo sapiens): 7.02 µM
IC50 [9]: 3.72 µM
IC50 [10]: 12 µM
IC50 [11]: 1.36 µM
IC50 ([12]; Homo sapiens): 3.89 µM

mayamycin A [Mayamycin (1)]
IC50 [1]: 1.05 µM
IC50 [2]: 1.05 µM
IC50 [3]: 2.22 µM
selective index ([3]; MDA-MB-468 versus normal breast cells): 2.69
IC50 [4]: 2.12 µM
IC50 [5]: 1.88 µM
selective index ([5]; Bt-549 versus normal breast cells): 3.18
IC50 [14]: 1.65 µM
IC50 [6]: 1.08 µM
IC50 [7]: 0.6 µM
selective index ([7]; MDA-MB-231 versus normal breast cells): 9.97
IC50 [8]: 0.91 µM
MIC ([15]; Enterococcus gallinarum 5F52C, 37 °C, 16–18 h): 32 µg/mL
MIC ([16]; Enterococcus faecalis ATCC 29212, 37 °C, 16–18 h): 32 µg/mL
MIC ([17]; Staphylococcus aureus (cfr) GDE4P037P, 37 °C, 16–18 h): 8 µg/mL
MIC ([18]; Enterococcus faecium 36711, 37 °C, 16–18 h): 16 µg/mL
MIC ([19]; Staphylococcus aureus 991, 37 °C, 16–18 h): 16 µg/mL
MIC ([20]; Enterococcus faecalis 36950, 37 °C, 16–18 h): 8 µg/mL
MIC ([21]; Staphylococcus aureus 669, 37 °C, 16–18 h): 16 µg/mL
MIC ([22]; Staphylococcus aureus 16339, 37 °C, 16–18 h): 16 µg/mL
MIC ([23]; Staphylococcus aureus ATCC 29213, 37 °C, 16–18 h): 16 µg/mL
MIC ([24]; Staphylococcus aureus 745324, 37 °C, 16–18 h): 16 µg/mL
MIC (Bacillus subtilis BS01; Bacillus subtilis BS01, 37 °C, 16–18 h): 8 µg/mL
MIC ([25]; Staphylococcus aureus 16162, 37 °C, 16–18 h): 16 µg/mL
MIC (Micrococcus luteus ML01; Micrococcus luteus ML01, 37 °C, 16–18 h): 1 µg/mL
MIC ([26]; Staphylococcus aureus 3090, 37 °C, 16–18 h): 16 µg/mL
MIC ([27]; Staphylococcus aureus 1862, 37 °C, 16–18 h): 16 µg/mL
MIC ([28]; Staphylococcus simulans AKA1, 37 °C, 16–18 h): 32 µg/mL
IC50 [9]: 5.98 µM
IC50 [10]: 1.68 µM
IC50 [11]: 2.31 µM
IC50 [12]: 2.64 µM
MIC (MRSA; 37 °C, 16–18 h): 8 µg/mL
IC50 [13]: 2.1 µM

CN[C@H](CC(C)C)C(=O)N[C@H]1C(=O)N[C@@H](CC(N)=O)C(=O)N[C@H]2C(=O)N[C@H]3C(=O)N[C@H](C(=O)N[C@H](C(=O)O)c4cc(O)cc(O)c4-c4cc3ccc4O)[C@H](O)c3ccc(c(Cl)c3)Oc3cc2cc(c3O[C@@H]2O[C@H](CO)[C@@H](O)[C@H](O)[C@H]2O[C@H]2C[C@](C)(N)[C@H](O)[C@H](C)O2)Oc2ccc(cc2Cl)[C@H]1O [Vancomycin, reference compound]
MIC ([15]; Enterococcus gallinarum, GALLINARUM): 4 µg/mL (≈ 2.76 µM)
MIC ([16]; Enterococcus faecalis, ATCC29212): 2 µg/mL (≈ 1.38 µM)
MIC ([17]; Staphylococcus aureus): 1 µg/mL (≈ 0.69 µM)
MIC ([18]; Enterococcus faecium, 36711): > 64 µg/mL
MIC ([19]; Staphylococcus aureus, 991): 0.5 µg/mL (≈ 0.345 µM)
MIC ([20]; Enterococcus faecalis, 36950): 0.5 µg/mL (≈ 0.345 µM)
MIC ([21]; Staphylococcus aureus, 669): 1 µg/mL (≈ 0.69 µM)
MIC ([22]; Staphylococcus aureus, 16339): 1 µg/mL (≈ 0.69 µM)
MIC ([23]; Staphylococcus aureus, ATCC29213): 1 µg/mL (≈ 0.69 µM)
MIC ([24]; Staphylococcus aureus, 745324): 1 µg/mL (≈ 0.69 µM)
MIC (Bacillus subtilis BS01; Bacillus subtilis, BS01): 0.13 µg/mL (≈ 0.0897 µM)
MIC ([25]; Staphylococcus aureus, 16162): 0.5 µg/mL (≈ 0.345 µM)
MIC (Micrococcus luteus ML01; Micrococcus luteus, ML01): 0.13 µg/mL (≈ 0.0897 µM)
MIC ([26]; Staphylococcus aureus, 3090): 0.5 µg/mL (≈ 0.345 µM)
MIC ([27]; Staphylococcus aureus, 1862): 1 µg/mL (≈ 0.69 µM)
MIC ([28]; Staphylococcus simulans, AKA1): 0.5 µg/mL (≈ 0.345 µM)
MIC (MRSA; Staphylococcus aureus): 0.5 µg/mL (≈ 0.345 µM)

— article PMC10817512, “OSMAC-Based Discovery and Biosynthetic Gene Clusters Analysis of Secondary Metabolites from Marine-Derived Streptomyces globisporus SCSIO LCY30” (Marine Drugs, 2023)
